We go through five molecules from patent publication EP0384421A2, “Use of PAF antagonists in the treatment of pathologic changes of the blood gas” (BOEHRINGER INGELHEIM KG, priority 1989, dated 1990).

Values joined by “and” are separate entries in the source; they are usually repeats but may differ in a detail not shown here. Identical values can stand only once.

In one assay the test system is Methylparathion. Set-up: species or system Ratten. The settings on record: in vivo. An excerpt:
Die Bestimmung der Partialdrucke der nachfolgend aufgeführten Blutgase sowie die Bestimmung des pH-Wertes des Blutes sind ein Indiz dafür, daß eine Behandlungsmethode bei Organophosphorvergiftungen positiv anspricht.
In der Tabelle I sind der pH-Wert und die Partialdrucke von CO₂ und O₂ aufgeführt. Die Ergebnisse sind Mittelwerte die aus Versuchen an 6 bis 15 Ratten je Experiment erhalten wurden. […] Die Konzentration von Atropin und Web 2086 ist in der Tabelle angegeben und bezieht sich auf mg/kg i.v. Die Reihenfolge der Applikation ist in Spalte 1 der Tabelle angegeben. Die Blutentnahme erfolgt 5 Minuten nach der letzten Substanzgabe. Die Blutgas-Messung erfolgte mit einem "Corning-Blood-Gas-Analyser 178".

Another assay deals with PAF. The assay can be described thus: Acid-base balance and blood gases in arterial blood of rats after PAF and a PAF antagonist. As to conditions: for BE / HCO3 / O2sat / TCO2 / pCO2 / pO2 / ph: PAF 10 µg/kg i.v., rats; for pH-Wert-Erniedrigung: pH decrease caused by PAF 10 µg/kg i.v. The format is in vivo, Ratten.
The mark [1] stands for this setting: PAF antagonist 1000 ug/kg i.v., arterial blood.
The mark [2] stands for this setting: PAF antagonist 100 ug/kg i.v., arterial blood.

`Cc1nnc2n1-c1sc(CCC(=O)N3CCOCC3)cc1C(c1ccccc1Cl)=NC2` [WEB 2086, 4-(2-Chlorphenyl)-9-methyl-2-[3-(4-morpholinyl)-3-propanon-1-yl]-6H-thieno[3,2-f][1,2,4]triazolo[4,3-a][1,4]diazepin]: in the assay on Methylparathion, the “Blutgaswerte bei Phosphorsäureestervergiftungen” value is given as “positiv beeinflußt”; the PCO2 is 73,0 and 58,9; the PO2 was 51,7 and 61,9; the pH was 7,25 and 7,07. Besides, in the assay on PAF (setting [1]), the BE was -5.40, the HCO3 was 19.8, the O2sat is recorded as 91.5 and the TCO2 came to 20.9. In the assay on PAF (setting [1]), this molecule returned a pCO2 of 38.2, a pO2 of 72.8 and a ph of 7.32. Moreover, the pH-Wert-Erniedrigung result with PAF is recorded as “verhindert”.
For `Cc1nnc2n1-c1sc3c(c1C(c1ccccc1Cl)=NC2)CC(C(=O)N1CCOCC1)C3` (centres unmarked) [WEB 2170, 6-(2-Chlorphenyl)-8,9-dihydro-1-methyl-8-[(4-morpholinyl)carbonyl]-4H,7H-cyclopenta[4,5]thieno[3,2-f][1,2,4]triazolo[4,3-a][1,4]diazepin], in the assay on PAF (setting [2]), the BE was determined as 0.18, the HCO3 worked out at 22.9, the O2sat is reported as 97.1 and the TCO2 is given as 23.9. Also, in the assay on PAF (setting [2]), the pCO2 is 33.8, the pO2 is recorded as 89.8 and the ph worked out at 7.44. The pH-Wert-Erniedrigung entry in the assay with PAF is reported as “verhindert”.
Take `Cc1nnc2n1-c1sc(Br)cc1C(c1ccccc1Cl)=NC2` [Brotizolam, reference compound]: in the assay on PAF (10 mg/kg p.o.), the BE is on record as -18,95, the HCO3 was 7,88, the O2sat is given as 95,48 and the TCO2 is 8,57. In the assay with PAF (10 mg/kg p.o.), the pCO2 is listed as 22,22, the pO2 is 104,47 and the ph is reported as 7,17. In addition, in the assay with PAF (30 mg/kg p.o.), the BE is on record as -3,32, the HCO3 is 20,97, the O2sat was 94,43 and the TCO2 is on record as 22,05. For the same molecule, in the assay with PAF (30 mg/kg p.o.), the pCO2 is 35,53, the pO2 is reported as 87,42 and the ph is 7,37. Besides, in the assay on PAF (100 mg/kg p.o.), the BE is given as -7,94, the HCO3 is 16,38, the O2sat is 95,18 and the TCO2 is 17,34. Besides, in the assay with PAF (100 mg/kg p.o.), the pCO2 was 30,60, the pO2 was 87,92 and the ph is reported as 7,33. In addition, the “Blutgas-stabilisierende Wirkung” value in the assay on PAF (10,30 und 100 mg/kg p.o., same experimental set-up) is reported as “dosisabhängig”. For the same molecule, the “durch PAF-verursachte pH Wert-Verminderung” value in the assay with PAF (30 und 100 mg/kg) is recorded as “verhindert”. Further, the “Abnahme des CO₂-Partialdruckes und Abnahme des Basenüberschusses” value with PAF (30 und 100 mg/kg, PAF-induced) is listed as “verhindert”.
As for `CN1C2CCC1CC(OC(=O)C(CO)c1ccccc1)C2` (racemic) [Atropin, reference compound], the pH in the assay with Methylparathion is 7,43 and 7,21 and 6,97.
In the assay on PAF (setting [1]), `Cc1nnc2n1-c1sc3c(c1C(c1ccccc1Cl)=NC2)CC(CN1CCOCC1)C3` (centres unmarked) [STY 2108] yielded a BE of 0.42, an HCO3 of 24.5, an O2sat of 96.8 and a TCO2 of 25.8. In addition, in the assay on PAF (setting [1]), the pCO2 amounted to 39.5, the pO2 is 90.4 and the ph is on record as 7.40. The pH-Wert-Erniedrigung entry with PAF was “verhindert”.
